In ChEMBL document CHEMBL1201862, “PubChem BioAssay data set” (2004):
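Compound exposure: 48 hours, 5 concentrations, 96-well plates. At the GI50, growth is halved.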 Active and inactive are the calls of the source. Cut-off read from the data, not from the text of the source: active = GI50 up to about 1.1 µM and inactive = higher.

Experiments:
Assay in all cases: growth of human tumour cells (NCI), 48 h
SF-539 = test system: SF-539
K562 = test system: K562
EKVX = test system: EKVX
MDA-N = test system: MDA-N
SK-OV-3 = test system: SK-OV-3
NCI/ADR-RES = test system: NCI/ADR-RES
U-251 = test system: U-251
RXF 393 = test system: RXF 393
HOP-92 = test system: HOP-92
UACC-257 = test system: UACC-257
MDA-MB-231 = test system: MDA-MB-231
SW-620 = test system: SW-620
OVCAR-5 = test system: OVCAR-5
SNB-19 = test system: SNB-19
UO-31 = test system: UO-31
OVCAR-3 = test system: OVCAR-3
HCC 2998 = test system: HCC 2998
MDA-MB-435 = test system: MDA-MB-435
SNB-75 = test system: SNB-75

Row | Structure (SMILES) | GI50 (SF-539) | GI50 (K562) | GI50 (EKVX) | GI50 (MDA-N) | GI50 (SK-OV-3) | GI50 (NCI/ADR-RES) | GI50 (U-251) | GI50 (RXF 393) | GI50 (HOP-92) | GI50 (UACC-257) | GI50 (MDA-MB-231) | GI50 (SW-620) | GI50 (OVCAR-5) | GI50 (SNB-19) | GI50 (UO-31) | GI50 (OVCAR-3) | GI50 (HCC 2998) | GI50 (MDA-MB-435) | GI50 (SNB-75)
1 | Clc1ccccc1-c1nnc2c(-c3ccccc3)nc3ccccc3n12 | > 100 µM (inactive) | > 100 µM (inactive) | > 100 µM (inactive) | 96.6 µM (inactive) | > 100 µM (inactive) | > 100 µM (inactive) | > 100 µM (inactive) | 13 µM (inactive) | > 100 µM (inactive) | > 100 µM (inactive) | > 100 µM (inactive) | > 100 µM (inactive) | > 100 µM (inactive) | > 100 µM (inactive) | 2.07 µM (inactive) | > 100 µM (inactive) | > 100 µM (inactive) | 52.7 µM (inactive) | 
2 | COc1ccc2c(c1)C1=NCCN(C)c3ccc([N+](=O)[O-])c(c31)N2 | 0.423 µM (active) | 12.2 µM (inactive) | 1.56 µM (inactive) | 0.546 µM (active) | 2.23 µM (inactive) | 0.665 µM (active) | 1.34 µM (inactive) | 0.277 µM (active) | 1.4 µM (inactive) | 2.54 µM (inactive) | 0.565 µM (active) | 0.415 µM (active) | 2.19 µM (inactive) | 0.652 µM (active) | 0.555 µM (active) | 1.36 µM (inactive) | 1.26 µM (inactive) | 0.748 µM (active) | 
3 | COc1cc(NC(C)c2ccc3c(c2)OCCO3)cc(OC)c1OC (stereo unspecified) | 22.1 µM (inactive) | 8.97 µM (inactive) | 33 µM (inactive) | 5.4 µM (inactive) |  | 22.9 µM (inactive) | 29.5 µM (inactive) | 27.3 µM (inactive) | > 100 µM (inactive) | 28.7 µM (inactive) | 32.5 µM (inactive) | 33.9 µM (inactive) | 46.6 µM (inactive) | 95.5 µM (inactive) | 56.9 µM (inactive) | 32.1 µM (inactive) | 23 µM (inactive) | 4.69 µM (inactive) | 
4 | O=C(c1ccccc1)C1C(C(=O)c2ccccc2)N1Cc1ccccc1 (stereo unspecified) |  | 27.9 µM (inactive) | 28.3 µM (inactive) | 13.5 µM (inactive) | 27.5 µM (inactive) | 33.5 µM (inactive) | 27.6 µM (inactive) |  | 26 µM (inactive) | 38.6 µM (inactive) | 26.1 µM (inactive) | 44.1 µM (inactive) | > 100 µM (inactive) | 37 µM (inactive) | 36.8 µM (inactive) | 27.8 µM (inactive) | 48.3 µM (inactive) | 21.8 µM (inactive) | 13.9 µM (inactive)
5 | C1=Nc2sc3c(c2C2=NCCN12)CCCC3 |  | 22.4 µM (inactive) | 15.6 µM (inactive) | 20.1 µM (inactive) |  | 18.2 µM (inactive) | 21.4 µM (inactive) | 25 µM (inactive) |  | 16.3 µM (inactive) | 14.2 µM (inactive) | 21 µM (inactive) | 18.2 µM (inactive) | 18.4 µM (inactive) | 16.3 µM (inactive) | 17.6 µM (inactive) | 11.8 µM (inactive) | 18.5 µM (inactive) | 18.9 µM (inactive)
6 | CCN(CC)CCC(=O)c1ccc(Sc2ccc(F)cc2)cc1 | 17.7 µM (inactive) | 52.8 µM (inactive) | 19.9 µM (inactive) | 25 µM (inactive) | 23.3 µM (inactive) | 24.3 µM (inactive) | 16 µM (inactive) | 17 µM (inactive) |  | 15.7 µM (inactive) | 16.9 µM (inactive) | 19.9 µM (inactive) | 19.7 µM (inactive) | 17.6 µM (inactive) | 17.8 µM (inactive) | 18.8 µM (inactive) | 32.6 µM (inactive) | 14.9 µM (inactive) | 17.5 µM (inactive)
7 | CC1=C(C(=O)NNC(=O)c2ccccc2)CC(C(=O)NNC(=O)c2ccccc2)=C(C)N1 | > 100 µM (inactive) | > 100 µM (inactive) | > 100 µM (inactive) | > 100 µM (inactive) | > 100 µM (inactive) | > 100 µM (inactive) | > 100 µM (inactive) | > 100 µM (inactive) | > 100 µM (inactive) | > 100 µM (inactive) | > 100 µM (inactive) | > 100 µM (inactive) | > 100 µM (inactive) | > 100 µM (inactive) | > 100 µM (inactive) | > 100 µM (inactive) | > 100 µM (inactive) | > 100 µM (inactive) | 
8 | O=c1c2ccc(Cl)cc2oc2c(CNc3ccc(S(=O)(=O)Nc4ncccn4)cc3)cccc12 | 94.4 µM (inactive) | > 100 µM (inactive) | > 100 µM (inactive) | > 100 µM (inactive) | > 100 µM (inactive) | > 100 µM (inactive) | > 100 µM (inactive) |  | > 100 µM (inactive) | > 100 µM (inactive) | > 100 µM (inactive) | > 100 µM (inactive) | > 100 µM (inactive) | > 100 µM (inactive) | > 100 µM (inactive) | > 100 µM (inactive) | > 100 µM (inactive) | > 100 µM (inactive) | > 100 µM (inactive)
9 | CCOC(=O)CC1Nc2ccccc2C12CCc1c([nH]c3ccccc13)C2C(=O)OCC (stereo unspecified) | 88.1 µM (inactive) | 34 µM (inactive) | 16.2 µM (inactive) | 4.65 µM (inactive) | 6.4 µM (inactive) | 12.6 µM (inactive) | 48.5 µM (inactive) | 5.79 µM (inactive) |  | 38 µM (inactive) | 22.9 µM (inactive) | 6.87 µM (inactive) | > 100 µM (inactive) | > 100 µM (inactive) | 36.1 µM (inactive) | 22.2 µM (inactive) | 84.9 µM (inactive) | 4.79 µM (inactive) | 0.0728 µM (active)
10 | Cc1cc(S(=O)(=O)N/C(=C(\C#N)C(=O)c2ccc(Cl)cc2)[n+]2ccc(N(C)C)cc2)c([S-])cc1Cl | 67.3 µM (inactive) | 53.2 µM (inactive) |  | > 100 µM (inactive) | 30.5 µM (inactive) | 73.3 µM (inactive) | > 100 µM (inactive) | > 100 µM (inactive) | < 0.01 µM (active) | < 0.01 µM (active) | > 100 µM (inactive) |  | 66.5 µM (inactive) |  | > 100 µM (inactive) | 45.1 µM (inactive) | 83 µM (inactive) | > 100 µM (inactive) | 
11 | O=C(O)Cc1c(-c2ccc([N+](=O)[O-])cc2)c(=O)oc2cc(O)ccc12 | 32.4 µM (inactive) | 30.9 µM (inactive) | 15.1 µM (inactive) | 30.4 µM (inactive) | 35.2 µM (inactive) | 20 µM (inactive) | 15.7 µM (inactive) | 30.3 µM (inactive) |  | 20.4 µM (inactive) | 29.4 µM (inactive) | 34.8 µM (inactive) | 30.1 µM (inactive) | 25.1 µM (inactive) | 23.4 µM (inactive) | 18.9 µM (inactive) | 25.1 µM (inactive) | 28.8 µM (inactive) | 
12 | CCOn1c(C2(CC3CCN(C(=O)c4ccccc4)CC3)OCCO2)cc2ccccc21 | 18.7 µM (inactive) | 11.4 µM (inactive) | 20.8 µM (inactive) | 16.5 µM (inactive) | 19.3 µM (inactive) | 16.9 µM (inactive) | 16.3 µM (inactive) | 17.4 µM (inactive) | 10.9 µM (inactive) | 11.1 µM (inactive) | 15.5 µM (inactive) | 15.8 µM (inactive) | 19 µM (inactive) | 16.7 µM (inactive) | 14 µM (inactive) | 16.4 µM (inactive) |  | 14.3 µM (inactive) | 16.5 µM (inactive)
13 | CCOC(=O)c1nc2ccccc2nc1Nc1ccc(OC)c(OC)c1 | > 100 µM (inactive) | > 100 µM (inactive) | 18.7 µM (inactive) | > 100 µM (inactive) | > 100 µM (inactive) | > 100 µM (inactive) | 75.7 µM (inactive) |  | 62.7 µM (inactive) |  | > 100 µM (inactive) |  | > 100 µM (inactive) | > 100 µM (inactive) | > 100 µM (inactive) | > 100 µM (inactive) | > 100 µM (inactive) | > 100 µM (inactive) | 21.9 µM (inactive)
14 | COC1/C=C\C=C(/C)C(=O)NC2=CC(=O)C(O)=C(CC(C)CC(OC)C(O)C(C)/C=C(\C)C1OC(N)=O)C2=O (stereo unspecified) | 0.984 µM (active) | 0.137 µM (active) | 10.8 µM (inactive) | 0.0364 µM (active) | 3.59 µM (inactive) | 64.6 µM (inactive) | 1.03 µM (active) | 0.136 µM (active) | 0.382 µM (active) | 0.384 µM (active) | 0.366 µM (active) | 0.0158 µM (active) | 11.5 µM (inactive) | 15.8 µM (inactive) | 3.95 µM (inactive) | 0.325 µM (active) | 1.4 µM (inactive) | 0.0537 µM (active) | 
15 | CSc1nc(-c2cc3c(c(SC)n2)CCC3)cc2c1CCC2 | > 100 µM (inactive) | > 100 µM (inactive) | > 100 µM (inactive) | > 100 µM (inactive) | > 100 µM (inactive) | > 100 µM (inactive) | > 100 µM (inactive) | > 100 µM (inactive) |  | > 100 µM (inactive) | > 100 µM (inactive) | > 100 µM (inactive) | > 100 µM (inactive) | > 100 µM (inactive) | > 100 µM (inactive) | > 100 µM (inactive) | > 100 µM (inactive) | > 100 µM (inactive) | > 100 µM (inactive)
16 | CCOC(=O)c1nc2ccccc2nc1Oc1cc(OC)c(OC)c(OC)c1 | 39.4 µM (inactive) |  | > 100 µM (inactive) | > 100 µM (inactive) |  | > 100 µM (inactive) | 32.6 µM (inactive) |  | 47.6 µM (inactive) | > 100 µM (inactive) | 35 µM (inactive) | > 100 µM (inactive) | > 100 µM (inactive) | > 100 µM (inactive) | > 100 µM (inactive) | > 100 µM (inactive) | > 100 µM (inactive) | > 100 µM (inactive) | 44.3 µM (inactive)
